Reference: ChEMBL document CHEMBL1140040, “Synthesis and cytotoxic activity of some novel polycyclic gamma-butyrolactones” (Bioorg Med Chem Lett, 2008)

Assays:
COLO 205 [1] = test: Cytotoxicity against human COLO205 cells assessed as age growth inhibition at 100 uM after 48 hrs by sulforhodamine B assay; type: functional; conditions: COLO 205, 48 h, read-out: GI
HCT-15 [2] = test: Antiproliferative activity against human HCT15 cells after 48 hrs by sulforhodamine B assay; type: functional, cell-based; conditions: HCT-15, 48 h
HCT-15 [3] = test: Cytotoxicity against human HCT15 cells assessed as age growth inhibition at 100 uM after 48 hrs by sulforhodamine B assay; type: functional; conditions: HCT-15, 48 h, read-out: GI
A549 [4] = test: Cytotoxicity against human A549 cells assessed as age growth inhibition at 100 uM after 48 hrs by sulforhodamine B assay; type: functional; conditions: A549, 48 h, read-out: GI
SF-295 [5] = test: Cytotoxicity against human SF295 cells assessed as age growth inhibition at 10 uM after 48 hrs by sulforhodamine B assay; type: functional; conditions: SF-295, 48 h, read-out: GI
IGROV-1 [6] = test: Cytotoxicity against human IGROV1 cells assessed as age growth inhibition at 100 uM after 48 hrs by sulforhodamine B assay; type: functional; conditions: IGROV-1, 48 h, read-out: GI
COLO 205 [7] = test: Cytotoxicity against human COLO205 cells assessed as age growth inhibition at 10 uM after 48 hrs by sulforhodamine B assay; type: functional; conditions: COLO 205, 48 h, read-out: GI
COLO 205 [8] = test: Antiproliferative activity against human COLO205 cells after 48 hrs by sulforhodamine B assay; type: functional, cell-based; conditions: COLO 205, 48 h
HOP-62 [9] = test: Antiproliferative activity against human HOP62 cells after 48 hrs by sulforhodamine B assay; type: functional, cell-based; conditions: HOP-62, 48 h
SK-OV-3 [10] = test: Antiproliferative activity against human SKOV3 cells after 48 hrs by sulforhodamine B assay; type: functional, cell-based; conditions: SK-OV-3, 48 h
SK-OV-3 [11] = test: Cytotoxicity against human SKOV3 cells assessed as age growth inhibition at 100 uM after 48 hrs by sulforhodamine B assay; type: functional; conditions: SK-OV-3, 48 h, read-out: GI
DU-145 [12] = test: Cytotoxicity against human DU145 cells assessed as age growth inhibition at 100 uM after 48 hrs by sulforhodamine B assay; type: functional; conditions: DU-145, 48 h, read-out: GI
HEp-2 [13] = test: Antiproliferative activity against human HEP2 cells after 48 hrs by sulforhodamine B assay; type: functional, cell-based; conditions: HEp-2, 48 h
DU-145 [14] = test: Cytotoxicity against human DU145 cells assessed as age growth inhibition at 50 uM after 48 hrs by sulforhodamine B assay; type: functional; conditions: DU-145, 48 h, read-out: GI
HCT-15 [15] = test: Cytotoxicity against human HCT15 cells assessed as age growth inhibition at 50 uM after 48 hrs by sulforhodamine B assay; type: functional; conditions: HCT-15, 48 h, read-out: GI
IGROV-1 [16] = test: Cytotoxicity against human IGROV1 cells assessed as age growth inhibition at 10 uM after 48 hrs by sulforhodamine B assay; type: functional; conditions: IGROV-1, 48 h, read-out: GI
HEp-2 [17] = test: Cytotoxicity against human HEP2 cells assessed as age growth inhibition at 10 uM after 48 hrs by sulforhodamine B assay; type: functional; conditions: HEp-2, 48 h, read-out: GI
IGROV-1 [18] = test: Antiproliferative activity against human IGROV1 cells after 48 hrs by sulforhodamine B assay; type: functional, cell-based; conditions: IGROV-1, 48 h
SK-OV-3 [19] = test: Cytotoxicity against human SKOV3 cells assessed as age growth inhibition at 50 uM after 48 hrs by sulforhodamine B assay; type: functional; conditions: SK-OV-3, 48 h, read-out: GI
A549 [20] = test: Cytotoxicity against human A549 cells assessed as age growth inhibition at 10 uM after 48 hrs by sulforhodamine B assay; type: functional; conditions: A549, 48 h, read-out: GI
SF-295 [21] = test: Cytotoxicity against human SF295 cells assessed as age growth inhibition at 100 uM after 48 hrs by sulforhodamine B assay; type: functional; conditions: SF-295, 48 h, read-out: GI
HEp-2 [22] = test: Cytotoxicity against human HEP2 cells assessed as age growth inhibition at 100 uM after 48 hrs by sulforhodamine B assay; type: functional; conditions: HEp-2, 48 h, read-out: GI
DU-145 [23] = test: Cytotoxicity against human DU145 cells assessed as age growth inhibition at 10 uM after 48 hrs by sulforhodamine B assay; type: functional; conditions: DU-145, 48 h, read-out: GI
HOP-62 [24] = test: Cytotoxicity against human HOP62 cells assessed as age growth inhibition at 50 uM after 48 hrs by sulforhodamine B assay; type: functional; conditions: HOP-62, 48 h, read-out: GI
SF-295 [25] = test: Cytotoxicity against human SF295 cells assessed as age growth inhibition at 50 uM after 48 hrs by sulforhodamine B assay; type: functional; conditions: SF-295, 48 h, read-out: GI
A549 [26] = test: Antiproliferative activity against human A549 cells after 48 hrs by sulforhodamine B assay; type: functional, cell-based; conditions: A549, 48 h
IGROV-1 [27] = test: Cytotoxicity against human IGROV1 cells assessed as age growth inhibition at 50 uM after 48 hrs by sulforhodamine B assay; type: functional; conditions: IGROV-1, 48 h, read-out: GI
HCT-15 [28] = test: Cytotoxicity against human HCT15 cells assessed as age growth inhibition at 10 uM after 48 hrs by sulforhodamine B assay; type: functional; conditions: HCT-15, 48 h, read-out: GI
SK-OV-3 [29] = test: Cytotoxicity against human SKOV3 cells assessed as age growth inhibition at 10 uM after 48 hrs by sulforhodamine B assay; type: functional; conditions: SK-OV-3, 48 h, read-out: GI
HOP-62 [30] = test: Cytotoxicity against human HOP62 cells assessed as age growth inhibition at 100 uM after 48 hrs by sulforhodamine B assay; type: functional; conditions: HOP-62, 48 h, read-out: GI
HEp-2 [31] = test: Cytotoxicity against human HEP2 cells assessed as age growth inhibition at 50 uM after 48 hrs by sulforhodamine B assay; type: functional; conditions: HEp-2, 48 h, read-out: GI
HOP-62 [32] = test: Cytotoxicity against human HOP62 cells assessed as age growth inhibition at 10 uM after 48 hrs by sulforhodamine B assay; type: functional; conditions: HOP-62, 48 h, read-out: GI
A549 [33] = test: Cytotoxicity against human A549 cells assessed as age growth inhibition at 50 uM after 48 hrs by sulforhodamine B assay; type: functional; conditions: A549, 48 h, read-out: GI
SF-295 [34] = test: Antiproliferative activity against human SF295 cells after 48 hrs by sulforhodamine B assay; type: functional, cell-based; conditions: SF-295, 48 h
DU-145 [35] = test: Antiproliferative activity against human DU145 cells after 48 hrs by sulforhodamine B assay; type: functional, cell-based; conditions: DU-145, 48 h
COLO 205 [36] = test: Cytotoxicity against human COLO205 cells assessed as age growth inhibition at 50 uM after 48 hrs by sulforhodamine B assay; type: functional; conditions: COLO 205, 48 h, read-out: GI

| SMILES | inhibition of growth at 100 µM (COLO 205 [1]) | IC50 (HCT-15 [2]) | inhibition of growth at 100 µM (HCT-15 [3]) | inhibition of growth at 100 µM (A549 [4]) | inhibition of growth at 10 µM (SF-295 [5]) | inhibition of growth at 100 µM (IGROV-1 [6]) | inhibition of growth at 10 µM (COLO 205 [7]) | IC50 (COLO 205 [8]) | IC50 (HOP-62 [9]) | IC50 (SK-OV-3 [10]) | inhibition of growth at 100 µM (SK-OV-3 [11]) | inhibition of growth at 100 µM (DU-145 [12]) | IC50 (HEp-2 [13]) | inhibition of growth at 50 µM (DU-145 [14]) | inhibition of growth at 10 µM (IGROV-1 [16]) | inhibition of growth at 10 µM (HEp-2 [17]) | inhibition of growth at 10 µM (A549 [20]) | inhibition of growth at 10 µM (DU-145 [23]) | inhibition of growth at 10 µM (HCT-15 [28]) | inhibition of growth at 10 µM (HOP-62 [32]) | also measured |
| --- | --- | --- | --- | --- | --- | --- | --- | --- | --- | --- | --- | --- | --- | --- | --- | --- | --- | --- | --- | --- | --- |
| COc1ccc([C@H]2OC(=O)[C@@H]3C=C4C(C)(C)CCC[C@]4(C)[C@H]23)cc1 | 52% | 77.1 µM | 55% | 55% | 0% | 51% | 0% | 99.2 µM | 94.8 µM | > 100 µM | 21% | 43% | > 100 µM | 12% | 3% | 3% | 8% | 8% | 16% | 10% | inhibition of growth at 50 µM (HCT-15 [15]): 45%; IC50 (IGROV-1 [18]): 94.2 µM; inhibition of growth at 50 µM (SK-OV-3 [19]): 0%; inhibition of growth at 100 µM (SF-295 [21]): 16%; inhibition of growth at 100 µM (HEp-2 [22]): 27%; inhibition of growth at 50 µM (HOP-62 [24]): 30%; inhibition of growth at 50 µM (SF-295 [25]): 16%; IC50 (A549 [26]): 89.1 µM; inhibition of growth at 50 µM (IGROV-1 [27]): 30%; inhibition of growth at 10 µM (SK-OV-3 [29]): 0%; inhibition of growth at 100 µM (HOP-62 [30]): 52%; inhibition of growth at 50 µM (HEp-2 [31]): 23%; inhibition of growth at 50 µM (A549 [33]): 31%; IC50 (SF-295 [34]): > 100 µM; IC50 (DU-145 [35]): > 100 µM; inhibition of growth at 50 µM (COLO 205 [36]): 15% |
| CC1(C)CCC[C@@]2(C)C1=C[C@H]1C(=O)O[C@H](c3ccc(C#N)cc3)[C@H]12 | 24% | > 100 µM | 30% | 25% | 12% | 29% | 2% | > 100 µM | > 100 µM | > 100 µM | 27% | 25% | > 100 µM | 22% | 6% | 5% | 15% | 16% | 14% | 5% | inhibition of growth at 50 µM (HCT-15 [15]): 25%; IC50 (IGROV-1 [18]): > 100 µM; inhibition of growth at 50 µM (SK-OV-3 [19]): 25%; inhibition of growth at 100 µM (SF-295 [21]): 20%; inhibition of growth at 100 µM (HEp-2 [22]): 19%; inhibition of growth at 50 µM (HOP-62 [24]): 9%; inhibition of growth at 50 µM (SF-295 [25]): 17%; IC50 (A549 [26]): > 100 µM; inhibition of growth at 50 µM (IGROV-1 [27]): 25%; inhibition of growth at 10 µM (SK-OV-3 [29]): 17%; inhibition of growth at 100 µM (HOP-62 [30]): 18%; inhibition of growth at 50 µM (HEp-2 [31]): 18%; inhibition of growth at 50 µM (A549 [33]): 24%; IC50 (SF-295 [34]): > 100 µM; IC50 (DU-145 [35]): > 100 µM; inhibition of growth at 50 µM (COLO 205 [36]): 24% |
| COc1cccc2c1C(=O)c1c(O)c3c(c(O)c1C2=O)C[C@@](O)(C(=O)CO)C[C@@H]3O[C@H]1C[C@H](N)[C@H](O)[C@H](C)O1 [DOXORUBICIN] |  |  |  |  | 54% |  |  |  |  |  |  |  |  |  |  |  | 47% | 64% | 54% | 69% |  |
| CC1(C)CCC[C@@]2(C)C1=C[C@H]1C(=O)O[C@H](c3ccco3)[C@H]12 | 64% | 50 µM | 56% | 25% | 0% | 67% | 16% | 79.5 µM | > 100 µM | 91 µM | 57% | 76% | 98.8 µM | 37% | 1% | 8% | 19% | 17% | 14% | 2% | inhibition of growth at 50 µM (HCT-15 [15]): 50%; IC50 (IGROV-1 [18]): 79.2 µM; inhibition of growth at 50 µM (SK-OV-3 [19]): 9%; inhibition of growth at 100 µM (SF-295 [21]): 38%; inhibition of growth at 100 µM (HEp-2 [22]): 52%; inhibition of growth at 50 µM (HOP-62 [24]): 8%; inhibition of growth at 50 µM (SF-295 [25]): 17%; IC50 (A549 [26]): > 100 µM; inhibition of growth at 50 µM (IGROV-1 [27]): 24%; inhibition of growth at 10 µM (SK-OV-3 [29]): 6%; inhibition of growth at 100 µM (HOP-62 [30]): 46%; inhibition of growth at 50 µM (HEp-2 [31]): 19%; inhibition of growth at 50 µM (A549 [33]): 20%; IC50 (SF-295 [34]): > 100 µM; IC50 (DU-145 [35]): 63.3 µM; inhibition of growth at 50 µM (COLO 205 [36]): 20% |
| CO[C@@]12[C@H](COC(N)=O)C3=C(C(=O)C(C)=C(N)C3=O)N1C[C@@H]1N[C@@H]12 [MITOMYCIN] |  |  |  |  |  |  |  |  |  |  |  |  |  |  |  |  | 55% | 63% |  |  |  |
| CC(=O)O[C@H]1C(=O)[C@@]2(C)[C@H]([C@H](OC(=O)c3ccccc3)[C@]3(O)C[C@H](OC(=O)[C@H](O)[C@@H](NC(=O)c4ccccc4)c4ccccc4)C(C)=C1C3(C)C)[C@]1(OC(C)=O)CO[C@@H]1C[C@@H]2O [PACLITAXEL] |  |  |  |  | 22% |  | 9% |  |  |  |  |  |  |  | 15% | 29% | 40% | 52% | 40% | 26% |  |
